Data from ChEMBL document CHEMBL5236565, “Design, synthesis, and biological evaluation of novel 2'-methyl-2'-fluoro-6-methyl-7-alkynyl-7-deazapurine nucleoside analogs as anti-Zika virus agents” (Eur J Med Chem, 2022).

Legend:
Zika virus [1] = assay: Antiviral activity against ZIKV infected in human A549 cells at 50 uM by microtiter assay relative to control; assay type: functional
Zika virus [2] = assay: Antiviral activity against ZIKV ZG-01 infected in human A549 cells assessed as reduction in viral induced cytopathic effect by measuring reduction in PFU measured after 4 days by neutral red staining based plaque assay; assay type: functional, organism-based; settings: ZG-01, A549, 96 h; for EC90: time 4 day
A549 = assay: Cytotoxicity against human A549 cells assessed as cell growth inhibition measured after 24 hrs by MTT assay; assay type: functional

SMILES | Activity (Zika virus [1]) [%] | EC50 (Zika virus [2]) [µM] | EC90 (Zika virus [2]) [µM] | CC50 (A549) [µM]
Cc1ncnc2c1c(-c1ccccc1)cn2[C@@H]1O[C@H](CO)[C@@H](O)[C@@]1(C)F | <10 | – | – | –
Cc1ncnc2c1c(-n1cc(-c3ccccc3)nn1)cn2[C@@H]1O[C@H](CO)[C@@H](O)[C@@]1(C)F | <10 | – | – | –
Cc1ncnc2c1c(-c1ccc(-c3ccccc3)cc1)cn2[C@@H]1O[C@H](CO)[C@@H](O)[C@@]1(C)F | 29.9 | – | – | –
CC#Cc1cn([C@@H]2O[C@H](CO)[C@@H](O)[C@@]2(C)F)c2ncnc(C)c12 | <10 | – | – | –
Cc1ncnc2c1c(C#Cc1ccc(Br)cc1F)cn2[C@@H]1O[C@H](CO)[C@@H](O)[C@@]1(C)F | – | 3 | 7.9 | > 50
Cc1ncnc2c1c(C#Cc1cccc(Br)c1)cn2[C@@H]1O[C@H](CO)[C@@H](O)[C@@]1(C)F | >90 | 4.5 | 15.4 | > 50
Cc1cccnc1C#Cc1cn([C@@H]2O[C@H](CO)[C@@H](O)[C@@]2(C)F)c2ncnc(C)c12 | <10 | – | – | –
Cc1ncnc2c1c(C#Cc1ccccc1F)cn2[C@@H]1O[C@H](CO)[C@@H](O)[C@@]1(C)F | >90 | 4.9 | 19.7 | > 50
Cc1ncnc2c1c(C#Cc1cccc(F)c1)cn2[C@@H]1O[C@H](CO)[C@@H](O)[C@@]1(C)F | <10 | – | – | –
Cc1cccc(C#Cc2cn([C@@H]3O[C@H](CO)[C@@H](O)[C@@]3(C)F)c3ncnc(C)c23)c1 | >90 | 7.1 | 19.1 | > 50
Cc1ncnc2c1c(C#Cc1ccc(Br)cc1)cn2[C@@H]1O[C@H](CO)[C@@H](O)[C@@]1(C)F | >90 | 4.4 | 14.7 | > 50
Cc1ccnc(C#Cc2cn([C@@H]3O[C@H](CO)[C@@H](O)[C@@]3(C)F)c3ncnc(C)c23)c1 | <10 | – | – | –
Cc1ncnc2c1c(C#Cc1cccnc1)cn2[C@@H]1O[C@H](CO)[C@@H](O)[C@@]1(C)F | <10 | – | – | –
Cc1ncnc2c1c(C#Cc1ccccn1)cn2[C@@H]1O[C@H](CO)[C@@H](O)[C@@]1(C)F | 18.8 | – | – | –
COc1cccc(C#Cc2cn([C@@H]3O[C@H](CO)[C@@H](O)[C@@]3(C)F)c3ncnc(C)c23)n1 | <10 | – | – | –
Cc1ncnc2c1c(C#Cc1cccs1)cn2[C@@H]1O[C@H](CO)[C@@H](O)[C@@]1(C)F | >90 | 35.4 | 50 | > 50
Cc1ccsc1C#Cc1cn([C@@H]2O[C@H](CO)[C@@H](O)[C@@]2(C)F)c2ncnc(C)c12 | 40.2 | – | – | –
Cc1ncnc2c1c(C1CC1c1ccccc1)cn2[C@@H]1O[C@H](CO)[C@@H](O)[C@@]1(C)F (stereo not given in full) | <10 | – | – | –
Cc1ncnc2c1c(C#Cc1ncccn1)cn2[C@@H]1O[C@H](CO)[C@@H](O)[C@@]1(C)F | <10 | – | – | –
COc1ccc(C#Cc2cn([C@@H]3O[C@H](CO)[C@@H](O)[C@@]3(C)F)c3ncnc(C)c23)cc1 | >90 | 11.8 | 40.7 | > 50
